Laboratory results taken from PubChem BioAssay (NCI).
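Following 48 hours of exposure in 96-well plates, responses at five concentrations were used to interpolate endpoints linearly. Here, GI50 denotes the concentration required for 50% inhibition of growth. TGI: total growth inhibition.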

Experiments:
Experiment in all cases: growth of human tumour cells (NCI), 48 h
[1] = tested on: MDA-MB-435
[2] = tested on: MCF7 breast
[3] = tested on: U251 CNS
[4] = tested on: A549 NSCLC
[5] = tested on: NCI-H522 lung
[6] = tested on: CAKI-1 renal
[7] = tested on: OVCAR-4 ovarian
[8] = tested on: HT29 colon
[9] = tested on: LOX IMVI melanoma
[10] = tested on: MALME-3M melanoma

Structure (SMILES)	TGI [1] [µM]	TGI [2] [µM]	TGI [3] [µM]	TGI [4] [µM]	TGI [5] [µM]	TGI [6] [µM]	TGI [7] [µM]	TGI [8] [µM]	TGI [9] [µM]	TGI [10] [µM]	GI50 [1] [µM]	GI50 [2] [µM]	GI50 [3] [µM]	GI50 [4] [µM]	GI50 [5] [µM]	GI50 [6] [µM]	GI50 [7] [µM]	GI50 [8] [µM]	GI50 [9] [µM]	GI50 [10] [µM]
CCOC(=O)c1c(-c2cccc(Cl)c2)c(C(=O)OC)c(C)c2sc(C=O)nc12	38.7	35.7	32.2	> 100	32.5	43	40.3	49.5	28.9	38										
Cc1ccc(OCC2=NC3S/C(=C/c4ccc([N+](=O)[O-])o4)C(=O)N3N2)cc1 (stereo unspecified)	19.8		29.5	38.9	4.37	32	7.86	22.6	13.3	7.94										
COC(=O)C1=C(OC(=O)/C=C/c2ccc(Cl)cc2)C(C(=O)OC)[C@]2(O)[C@@H](C(=O)OC)[C@H]1C[C@@H](c1ccccc1)[C@@H]2C(=O)OC (stereo partly specified)	> 100		> 100	> 100	5.83	> 100	> 100	> 100	> 70.4	20.4										
O/C(=C\c1nc2ccccc2nc1/C=C(\O)c1ccc(F)cc1)c1ccc(F)cc1	> 100	> 100	> 100	> 100	> 100	> 100	> 100	> 100	> 100	> 100										
N#Cc1ccccc1C#C/C=C\C#Cc1ccccc1N	3.21	> 100	> 42.5	> 100		0.634	> 100	> 100	> 35.4	40.2	1.34	67.9	4.16	6.95	2.94	0.129	16.1	4.38	4.04	2.86
CC(=O)Nc1ccc(C(=O)NN2C(=O)C(Cl)C2c2cccc([N+](=O)[O-])c2)cc1 (stereo unspecified)			> 100	> 100	> 100			> 100		> 100										
CCN1CCN(c2nc3ccccc3nc2C(=O)c2ccc(OC)c(OC)c2)CC1	90.6	45.5	30.2	28.3	27.9	> 100	25.7	39.4	26.2	36.5										
Cc1cc2ccc(OC(=O)c3ccc(N=C(N)N)cc3)cc2oc1=O	58.1	54.9	45.6	> 100	45.2	> 100	46.6	70.4	> 100	60.7										
CS(C)(=O)=Nn1c(=O)n2n(c1=O)C1c3ccccc3C2c2ccccc21	> 100	> 100	> 100	> 100	> 100	> 100		> 100	> 100	> 100										
Cn1c2[n+](c3nc(N)[nH]c(=O)c31)C1OC(C2)C(O)C1O (stereo unspecified)			> 100	> 100	> 100	> 100	> 100	> 100	> 100	> 100										
COc1cccc(/C=N/[N-]C(N)=O)c1[O-].[Ni+2].[OH3+]			0.816	2.27	0.25	2.19	1.01	2.07	2.15	2.2										
CC1=CC(O)C(C(O)(C(F)(F)F)C(F)(F)F)C(C)(C)C1 (stereo unspecified)		> 10	> 10	> 10	> 10	> 10	> 10	> 10	> 10	> 10										
Nc1nnc(CCC(=O)Nc2cc(Cl)ccc2Cl)n1N			> 100	> 100	> 100	> 100	> 100	> 100	> 100	> 100										
O=S(=O)(O)c1ccc2c(N=Nc3ccc(N=Nc4ccccc4)cc3)c(O)c(S(=O)(=O)O)cc2c1	> 100	> 100	> 100	> 100	> 100	> 100	> 100	> 100		> 100										
Cc1cc(C)c2c(=O)n(CC(O)CN3CCN(CCOCCO)CC3)sc2n1 (stereo unspecified)	32.8	34.2	36.3	> 100	32.1	> 100	34.5	39.6	37.1	35.4										
OCCCSCCO	> 100	> 100	> 100	> 100	> 100	> 100	> 100	> 100	> 100	> 100										
Cc1n[n+]([O-])c(C)cc1[N+](=O)[O-]	29	45.6	51.9	48.1	25.6		33.5	27	57.9	35.3										
CC1(C(=O)O)C[C@](C)(C(=O)OCc2ccccc2)C[C@](C)(C(=O)OCc2ccccc2)C1 (stereo partly specified)	> 100	> 100		> 100	60	71.2	> 100	> 100	92.4	> 100										
